The record followed here is patent US11912703B2, “6-azaindole compounds” (BRISTOL-MYERS SQUIBB COMPANY, priority 2017, dated 2024).

In one assay the target is human TLR7 (Homo sapiens (Human), UniProt Q9NYK1). Nature of the assay: TLR7 inhibition reporter assay (HEK-Blue SEAP). In kind it is cell-based. Conditions: HEK-Blue cells overexpressing human TLR7, gardiquimod 7.5 μM stimulation.
The target of a further assay is human TLR8 (Homo sapiens (Human), UniProt Q9NR97). Nature of the assay: TLR8 inhibition reporter assay (HEK-Blue SEAP).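 Note: SEAP driven by IFN-β minimal promoter with five NF-κB and AP-1 sites, compounds tested 0.05 nM to 50 µM, 22 h incubation, inhibition relative to agonist plus DMSO wells.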 On the technique in general: In a reporter assay the amount or activity of a reporter protein is the signal.
In a further assay the target is human TLR9 (Homo sapiens (Human), UniProt Q9NR96). Nature of the assay: TLR9 inhibition reporter assay (HEK-Blue SEAP).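 Note: SEAP driven by IFN-β minimal promoter carrying five NF-κB and AP-1 sites, 22 h at 37 °C, compounds 0.05 nM–50 µM, inhibition scaled between agonist-plus-DMSO and reference-inhibitor wells.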
Where [1] appears, read: read-out: TLR8 IC50; HEK-Blue cells overexpressing human TLR8; R848 15.9 μM stimulation; SEAP reporter.
Where [2] appears, read: read-out: TLR9 IC50; HEK-Blue cells overexpressing human TLR9; ODN2006 5 nM stimulation; SEAP reporter.
Where [3] appears, read: read-out: TLR8 IC50; HEK-Blue cells overexpressing human TLR8, R848 15.9 μM stimulation, SEAP reporter.
[4] abbreviates: read-out: TLR9 IC50; HEK-Blue cells overexpressing human TLR9, ODN2006 5 nM stimulation, SEAP reporter.

Like-named read-outs stand apart in the source and are kept apart here. Bounds are passed on as bounds.

As usually defined, the IC50 is the concentration at which inhibition is half-maximal.

Chain of human TLR7 (Q9NYK1 27-1049): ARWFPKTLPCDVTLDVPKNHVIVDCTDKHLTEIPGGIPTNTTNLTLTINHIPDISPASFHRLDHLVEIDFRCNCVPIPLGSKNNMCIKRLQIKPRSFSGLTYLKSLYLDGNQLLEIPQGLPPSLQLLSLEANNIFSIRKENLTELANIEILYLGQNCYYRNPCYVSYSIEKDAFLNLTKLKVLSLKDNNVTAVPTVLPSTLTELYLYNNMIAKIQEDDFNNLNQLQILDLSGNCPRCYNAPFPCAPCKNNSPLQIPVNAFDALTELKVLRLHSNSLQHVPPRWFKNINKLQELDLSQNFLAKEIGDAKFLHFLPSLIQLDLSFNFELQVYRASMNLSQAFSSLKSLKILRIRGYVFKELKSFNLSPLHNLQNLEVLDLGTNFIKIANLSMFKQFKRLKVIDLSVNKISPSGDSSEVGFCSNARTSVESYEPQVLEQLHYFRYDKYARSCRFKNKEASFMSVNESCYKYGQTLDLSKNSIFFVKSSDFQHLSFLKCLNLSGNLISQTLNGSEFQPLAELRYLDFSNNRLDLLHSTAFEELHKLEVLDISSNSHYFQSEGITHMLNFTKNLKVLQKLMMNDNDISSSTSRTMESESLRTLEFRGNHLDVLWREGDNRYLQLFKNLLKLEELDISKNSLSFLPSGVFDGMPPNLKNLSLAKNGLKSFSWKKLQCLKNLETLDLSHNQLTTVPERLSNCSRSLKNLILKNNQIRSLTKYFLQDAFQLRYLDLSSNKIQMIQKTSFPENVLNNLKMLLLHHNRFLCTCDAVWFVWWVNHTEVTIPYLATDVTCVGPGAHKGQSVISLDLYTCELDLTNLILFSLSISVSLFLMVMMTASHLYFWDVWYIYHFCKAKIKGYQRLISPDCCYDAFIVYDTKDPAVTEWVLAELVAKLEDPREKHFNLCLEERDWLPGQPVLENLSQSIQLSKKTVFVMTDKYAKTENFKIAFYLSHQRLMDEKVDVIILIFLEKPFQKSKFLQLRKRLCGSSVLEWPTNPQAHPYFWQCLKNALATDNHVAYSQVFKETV
Chain of human TLR9 (Q9NR96 26-1032): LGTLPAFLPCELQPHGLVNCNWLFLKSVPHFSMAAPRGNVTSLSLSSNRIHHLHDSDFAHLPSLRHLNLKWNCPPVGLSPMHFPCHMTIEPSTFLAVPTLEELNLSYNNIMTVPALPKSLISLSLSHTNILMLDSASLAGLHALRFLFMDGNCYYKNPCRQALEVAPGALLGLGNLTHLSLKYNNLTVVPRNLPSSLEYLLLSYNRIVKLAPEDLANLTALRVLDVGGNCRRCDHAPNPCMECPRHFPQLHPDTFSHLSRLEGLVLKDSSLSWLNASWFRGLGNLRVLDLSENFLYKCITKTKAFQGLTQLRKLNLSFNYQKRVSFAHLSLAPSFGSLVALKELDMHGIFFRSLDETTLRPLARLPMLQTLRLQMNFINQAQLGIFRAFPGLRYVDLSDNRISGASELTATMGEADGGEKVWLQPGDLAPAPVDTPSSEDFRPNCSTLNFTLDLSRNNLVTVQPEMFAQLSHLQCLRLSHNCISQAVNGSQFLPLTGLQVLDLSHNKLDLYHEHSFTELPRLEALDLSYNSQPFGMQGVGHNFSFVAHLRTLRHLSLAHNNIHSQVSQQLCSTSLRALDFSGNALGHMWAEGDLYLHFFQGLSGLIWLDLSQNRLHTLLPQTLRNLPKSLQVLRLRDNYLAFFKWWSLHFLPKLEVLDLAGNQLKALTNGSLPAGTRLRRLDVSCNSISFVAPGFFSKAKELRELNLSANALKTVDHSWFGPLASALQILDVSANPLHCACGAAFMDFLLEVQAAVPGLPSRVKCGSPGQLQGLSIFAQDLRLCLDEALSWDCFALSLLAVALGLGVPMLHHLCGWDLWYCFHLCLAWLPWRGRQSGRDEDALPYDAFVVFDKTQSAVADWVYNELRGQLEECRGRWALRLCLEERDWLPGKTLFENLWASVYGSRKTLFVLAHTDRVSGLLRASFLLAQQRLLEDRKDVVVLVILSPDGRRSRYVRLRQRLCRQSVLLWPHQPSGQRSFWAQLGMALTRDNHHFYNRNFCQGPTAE
Chain of human TLR8 (Q9NR97 27-1041): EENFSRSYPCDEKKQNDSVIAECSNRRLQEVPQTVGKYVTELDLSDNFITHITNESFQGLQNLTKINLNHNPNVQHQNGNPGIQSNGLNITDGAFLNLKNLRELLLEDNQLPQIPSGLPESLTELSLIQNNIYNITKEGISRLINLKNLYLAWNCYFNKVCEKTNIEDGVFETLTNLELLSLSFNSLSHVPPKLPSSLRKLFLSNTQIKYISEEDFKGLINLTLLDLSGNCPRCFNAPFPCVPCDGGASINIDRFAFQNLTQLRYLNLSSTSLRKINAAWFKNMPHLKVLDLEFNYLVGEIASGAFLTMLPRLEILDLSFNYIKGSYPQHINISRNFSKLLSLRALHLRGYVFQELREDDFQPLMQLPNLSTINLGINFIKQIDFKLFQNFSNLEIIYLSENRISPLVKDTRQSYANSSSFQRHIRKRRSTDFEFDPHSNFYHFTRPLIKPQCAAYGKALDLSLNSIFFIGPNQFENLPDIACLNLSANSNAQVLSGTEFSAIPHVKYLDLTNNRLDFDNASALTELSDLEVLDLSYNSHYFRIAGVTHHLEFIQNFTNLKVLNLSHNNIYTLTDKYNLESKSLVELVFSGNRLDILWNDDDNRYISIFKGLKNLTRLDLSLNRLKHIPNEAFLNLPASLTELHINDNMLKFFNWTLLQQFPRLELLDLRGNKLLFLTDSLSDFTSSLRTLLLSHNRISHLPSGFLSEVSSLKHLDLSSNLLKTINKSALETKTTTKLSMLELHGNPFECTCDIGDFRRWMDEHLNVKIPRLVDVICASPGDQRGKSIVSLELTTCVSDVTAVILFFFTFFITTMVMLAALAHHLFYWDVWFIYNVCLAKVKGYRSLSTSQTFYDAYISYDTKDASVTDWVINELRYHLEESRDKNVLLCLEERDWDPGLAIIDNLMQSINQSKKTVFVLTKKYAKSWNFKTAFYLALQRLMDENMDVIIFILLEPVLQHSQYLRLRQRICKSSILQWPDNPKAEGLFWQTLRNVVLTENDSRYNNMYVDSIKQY
Method for human TLR7: HEK-Blue™-cells (Invivogen) overexpressing human TLR7, TLR8 or TLR9 receptors were used for screening inhibitors of these receptors using an inducible SEAP (secreted embryonic alkaline phosphatase) reporter gene under the control of the IFN-β minimal promoter fused to five NF-κB and AP-1-binding sites. Briefly, cells are seeded into Greiner 384 well plates (15000 cells per well for TLR7, 20,000 for TLR8 and 25,000 for TLR9) and then treated with test compounds in DMSO to yield a final dose response concentration range of 0.05 nM-50 μM. After a 30 minute compound pre-treatment at room temperature, the cells are then stimulated with a TLR7 ligand (gardiquimod at a final concentration of 7.5 μM), TLR8 ligand (R848 at a final concentration of 15.9 μM) or TLR9 ligand (ODN2006 at a final concentration of 5 nM) to activate NF-κB and AP-1 which induce the production of SEAP. After a 22 hour incubation at 37° C., 500 CO2, SEAP levels are determined with the addition of HEK-Blue™ Detection reagent (Invivogen), a cell culture medium that allows for detection of SEAP, according to manufacturer's specifications.

Consider `Cc1c(-c2[nH]c3cnc(N4CCN(CC5CC5)C[C@H]4C)c(F)c3c2C(C)C)cn2ncnc2c1C` [Example 459], for which the IC50 at human TLR7 was found to be 1.6 nM; at human TLR8 (setting [1]), 0.54 nM; on human TLR9 (setting [2]), 13800 nM.
On to `COc1cc(-c2[nH]c3cnc(C4CCC(NC5COC5)CC4)c(C)c3c2C(C)C)cn2ncnc12` (stereo not drawn) [Example 242], for which the IC50 against human TLR7 worked out at 11 nM; at human TLR8 (setting [3]) it was 14 nM; on human TLR9 (setting [4]), 401 nM.
The corresponding values for `CNCCN1CCC(c2cc3c(C)c(-c4ccc(OC)c(OC)c4)[nH]c3cn2)CC1` [Example 8] are 6640 nM, 15900 nM and 258 nM.
The matching figures for `COc1cc(-c2[nH]c3cnc(N4CCN(CC(=O)N(C)C)CC4)c(C)c3c2C(C)C)cn2ncnc12` [Example 252]: 6.4 nM, 5.2 nM and 3360 nM.
As for `CNC(=O)CN(C)C1CCC(c2cc3c(C(C)C)c(-c4cc(OC)c5ncnn5c4)[nH]c3cn2)CC1` (stereo not drawn) [Example 328], the results for the IC50 at human TLR7, on human TLR8 (setting [3]) and on human TLR9 (setting [4]) were 11 nM, 60 nM and 1390 nM, respectively.
With `Cc1c(-c2[nH]c3cnc(N4CCN(CC#N)C[C@H]4C)c(F)c3c2C(C)C)cn2ncnc2c1C` [Example 467], the results for the concentration for half-maximal inhibition (IC50) against human TLR7, on human TLR8 (setting [1]) and on human TLR9 (setting [2]) were 2.8 nM, 1.4 nM and 17100 nM, respectively.
In the case of `COc1cc(-c2[nH]c3cnc(C4CCC(N5CC6(COC6)C5)CC4)c(F)c3c2C(C)C)cn2ncnc12` (stereo not drawn) [Example 161], the half-maximal inhibitory concentration (IC50) was 2.4 nM at human TLR7, 4.6 nM at human TLR8 (setting [3]) and 293 nM at human TLR9 (setting [4]).
As for `Cc1c(N2CCC(NCC(C)(C)O)CC2)ncc2[nH]c(-c3cc(C)c4ncnn4c3)c(C(C)C)c12` [Example 283], the half-inhibitory concentration (IC50) at human TLR7 came to 0.46 nM; on human TLR8 (setting [3]), 0.27 nM; on human TLR9 (setting [4]), 1620 nM.
For `Cc1cc(-c2[nH]c3cnc(C4CCN(CC(=O)N(C)C)CC4)cc3c2C(C)C)cn2ncnc12` [Example 299], the half-inhibitory concentration (IC50) is 2.9 nM at human TLR7, 25 nM at human TLR8 (setting [3]) and 356 nM at human TLR9 (setting [4]).
For `Cc1c(-c2[nH]c3cnc(N4CCC(NC5CCOCC5)CC4)c(C)c3c2C(C)C)cn2ncnc2c1C` [Example 205], the IC50 was 1.2 nM against human TLR7, 0.55 nM on human TLR8 (setting [3]) and 600 nM on human TLR9 (setting [4]).
The matching figures for `Cc1c(N2CCC(N(C)C(C)C)CC2)ncc2[nH]c(-c3cc(C)c4ncnn4c3)c(C(C)C)c12` [Example 124]: 0.38 nM, 0.65 nM and 905 nM.
Turning to `COc1cc(-c2[nH]c3cnc(C4CCC(NC5COC5)C4)cc3c2C(C)C)cn2ncnc12` (stereo not drawn) [Example 93], the 50% inhibitory concentration (IC50) against human TLR7 turned out to be 18 nM; at human TLR8 (setting [3]), 37 nM; on human TLR9 (setting [4]), 2830 nM.
The matching figures for `Cc1c(-c2[nH]c3cnc(C4CCC(NCC5(C)COC5)CC4)c(C)c3c2C(C)C)cn2ncnc2c1C` (stereo not drawn) [Example 204]: 6.6 nM, 3.1 nM and 466 nM.
Turning to `Cc1cc(-c2[nH]c3cnc(N4CCN(CC(=O)N(C)C)CC4)cc3c2C(C)C)cn2ncnc12` [Example 297], the IC50 at human TLR7 was above 3120 nM; on human TLR8 (setting [3]), above 3120 nM; at human TLR9 (setting [4]), 17900 nM.
As to `COc1cc(-c2[nH]c3cnc(N4CCN(CC#N)CC4)c(F)c3c2C(C)C)cn2ncnc12` [Example 365], the half-inhibitory concentration (IC50) against human TLR7 was 0.42 nM; on human TLR8 (setting [3]) it was 0.51 nM; on human TLR9 (setting [4]), 1490 nM.
The corresponding values for `CCN(C)C1CCN(c2ncc3[nH]c(-c4cn5ncnc5c(C)c4C)c(C(C)C)c3c2F)CC1` [Example 83] are 1.3 nM, 1.4 nM and 9100 nM.
The matching figures for `COc1cc(-c2[nH]c3cnc(C4CCC(N(CC#N)C5COC5)CC4)c(F)c3c2C(C)C)cn2ncnc12` (stereo not drawn) [Example 115]: 1.4 nM, 2.4 nM and 15800 nM.
For `Cc1cc(-c2[nH]c3cnc(N4CCC(N(C)CC(F)F)CC4)c(F)c3c2C(C)C)cn2ncnc12` [Example 257], the IC50 against human TLR7 is 5.3 nM; on human TLR8 (setting [3]), 6.4 nM; at human TLR9 (setting [4]), 36000 nM.
The matching figures for `Cc1cc(-c2[nH]c3cnc(C4CCN(C(=O)CN(C)C)CC4)c(F)c3c2C(C)C)cc(C)n1` [Example 185]: 6.2 nM, 7.8 nM and 1550 nM.
The corresponding values for `Cc1cc(-c2[nH]c3cnc(N4CCC(N5CC6(COC6)C5)CC4)c(F)c3c2C(C)C)cn2ncnc12` [Example 44] are 0.63 nM, 0.36 nM and 2770 nM.
For `Cc1cc(-c2[nH]c3cnc(C4CCN(C(C)C)CC4)c(F)c3c2C(C)C)cc(C)n1` [Example 97], the half-maximal inhibitory concentration (IC50) is 2.5 nM against human TLR7, 7.4 nM at human TLR8 (setting [3]) and 1080 nM at human TLR9 (setting [4]).
On to `COc1cc(-c2[nH]c3cnc(C4CCC(N(C)C(C)C)CC4)c(F)c3c2C(C)C)cn2ncnc12` (stereo not drawn) [Example 76], for which the concentration for half-maximal inhibition (IC50) against human TLR7 came out at 0.58 nM; at human TLR8 (setting [3]), 3.8 nM; at human TLR9 (setting [4]), 959 nM.
In the case of `Cc1c(N2CCC(N3CCNC(=O)C3)CC2)ncc2[nH]c(-c3cc(C)c4ncnn4c3)c(C(C)C)c12` [Example 284], the IC50 against human TLR7 was found to be 8.3 nM; at human TLR8 (setting [3]), 14 nM; at human TLR9 (setting [4]), 23500 nM.
The corresponding values for `COc1cc(-c2[nH]c3cnc(C4CCC(NCC5(C)COC5)CC4)c(C)c3c2C(C)C)cn2ncnc12` (stereo not drawn) [Example 270] are 2.6 nM, 3.2 nM and 392 nM.
The corresponding values for `CNC(=O)CN1CCN(c2cc3c(C(C)C)c(-c4cc(C)c5ncnn5c4)[nH]c3cn2)CC1` [Example 302] are 1590 nM, above 3120 nM and above 50000 nM.
The matching figures for `Cc1c(-c2[nH]c3cnc(C4CCC(NC(C)C)CC4)c(F)c3c2C(C)C)cn2ncnc2c1C` (stereo not drawn) [Example 85]: 2.6 nM, 1.1 nM and 924 nM.
With `Cc1c(N2CCC(N(C)CCC#N)CC2)ncc2[nH]c(-c3cc(C)c4ncnn4c3)c(C(C)C)c12` [Example 280], the half-inhibitory concentration (IC50) at human TLR7 turned out to be 1.3 nM; at human TLR8 (setting [3]) it was 1.2 nM; on human TLR9 (setting [4]) it was 2500 nM.
The matching figures for `COc1cc(-c2[nH]c3cnc(C4CCC(NC5CCOC5)CC4)cc3c2C(C)C)cn2ncnc12` (stereo not drawn) [Example 317]: 2.1 nM, 7.1 nM and 34 nM.
For `COc1cc(-c2[nH]c3cnc(C4CCC(NCC(C)(C)C)C4)cc3c2C(C)C)cn2ncnc12` (stereo not drawn) [Example 60], the concentration for half-maximal inhibition (IC50) on human TLR7 came to 5 nM; at human TLR8 (setting [3]), 1.2 nM; on human TLR9 (setting [4]), 502 nM.
The matching figures for `COC(C)(C)CNC1CCN(c2ncc3[nH]c(-c4cn5ncnc5c(C)c4C)c(C(C)C)c3c2C)CC1` [Example 173]: 1.5 nM, 0.54 nM and 653 nM.
Take `COc1cc(-c2[nH]c3cnc(N4CCC(NCC5(C)COC5)CC4)cc3c2C(C)C)cn2ncnc12` [Example 322]: the concentration for half-maximal inhibition (IC50) on human TLR7 was found to be 2.1 nM; at human TLR8 (setting [3]), 0.23 nM; on human TLR9 (setting [4]) it was 1450 nM.
The matching figures for `COc1cc(-c2[nH]c3cnc(N4CCC(NC5(C)COC5)CC4)c(F)c3c2C(C)C)cn2ncnc12` [Example 188]: 1.6 nM, 0.21 nM and 5160 nM.
The corresponding values for `COc1cc(-c2[nH]c3cnc(N4CCN(CC(N)=O)CC4)cc3c2C(C)C)cn2ncnc12` [Example 319] are 12 nM, 3.7 nM and 14400 nM.
Take `COc1cc(-c2[nH]c3cnc(C4CCC(NC5CCOCC5)CC4)c(C)c3c2C(C)C)cn2ncnc12` (stereo not drawn) [Example 176]: the half-inhibitory concentration (IC50) worked out at 16 nM on human TLR7, 18 nM on human TLR8 (setting [3]) and 325 nM on human TLR9 (setting [4]).
The matching figures for `Cc1c(-c2[nH]c3cnc(N4CCN(CC5CCOCC5)CC4)c(F)c3c2C(C)C)cn2ncnc2c1C` [Example 411]: 9.6 nM, 0.18 nM and 11200 nM.
Turning to `CNC(=O)CN1CCC(c2ncc3[nH]c(-c4cc(C)c5ncnn5c4)c(C(C)C)c3c2F)CC1` [Example 181], the IC50 stood at 1.5 nM against human TLR7, 5 nM on human TLR8 (setting [3]) and 6550 nM on human TLR9 (setting [4]).
For `COc1cc(-c2[nH]c3cnc(N4CCN(C(=O)CN5CCOCC5)C[C@H]4C)c(F)c3c2C(C)C)cn2ncnc12` [Example 438], the IC50 against human TLR7 was 25 nM; at human TLR8 (setting [3]), 13 nM; at human TLR9 (setting [4]), above 50000 nM.
With `COc1cc(-c2[nH]c3cnc(C4CCN(C(C)C)CC4)c(C)c3c2C(C)C)cn2ncnc12` [Example 33], the concentration for half-maximal inhibition (IC50) at human TLR7 was found to be 1.4 nM; on human TLR8 (setting [3]) it was 6.9 nM; at human TLR9 (setting [4]), 134 nM.
Turning to `COc1cc(-c2[nH]c3cnc(N4CCC(NC5COC5)CC4)c(F)c3c2C(C)C)cn2ncnc12` [Example 42, 1-(4-fluoro-3-isopropyl-2-(8-methoxy-[1,2,4]triazolo[1,5-a]pyridin-6-yl)-1H-pyrrolo[2,3-c]pyridin-5-yl)-N-(oxetan-3-yl)piperidin-4-amine], the figures for the IC50 against human TLR7, at human TLR8 (setting [3]) and on human TLR9 (setting [4]) were 1.6 nM, 0.59 nM and 9180 nM, respectively.
For the molecule `Cc1c(-c2[nH]c3cnc(N4CCN(CC(C)(C)O)CC4)c(F)c3c2C(C)C)cn2ncnc2c1C` [Example 426], the concentration for half-maximal inhibition (IC50) against human TLR7 was 30 nM; on human TLR8 (setting [3]), 0.54 nM; on human TLR9 (setting [4]), above 50000 nM.
Regarding `Cc1cc(-c2[nH]c3cnc(C4CCC(NC5(C)COC5)CC4)c(F)c3c2C(C)C)cn2ncnc12` (stereo not drawn) [Example 231], the IC50 at human TLR7 came out at 5.9 nM; at human TLR8 (setting [1]), 6.6 nM; on human TLR9 (setting [2]) it was 4170 nM.
